Assay results published in the supplement of paper PMC4862054.

Key:
Settings in all cases: incubation time: 72 h
[1] = system: BT-549; assay: drug sensitivity score (DSS), CellTiter-Glo (DSS (AUC-based score)); higher = stronger drug effect (viability inhibition or cytotoxicity); extreme values may be limits of the assay
Method in brief: (§1)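 Breast cancer cell lines were seeded in 20 µl suspension into 384-well plates already holding compound and incubated for 72 h. Each compound was tested at 5 concentrations in 10-fold steps across its own 10,000-fold range. Plates were normalised to 0.1 % DMSO and a positive kill control after CellTox Green and then CellTiter-Glo readings. The area under the fitted dose-response curve served as the basis for the drug sensitivity score.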

[2] = system: CAL-148; assay: as above
Method in brief: as §1

[3] = system: MDA-MB-453; assay: as above
Method in brief: as §1

[4] = system: CAL-51; assay: as above
Method in brief: as §1

[5] = system: HCC1937; assay: as above
Method in brief: as §1

[6] = system: DU-4475; assay: as above
Method in brief: as §1

[7] = system: BT-474; assay: as above
Method in brief: as §1

[8] = system: HCC1143; assay: as above
Method in brief: as §1

[9] = system: CAL-85-1; assay: as above
Method in brief: as §1

[10] = system: MDA-MB-436; assay: as above
Method in brief: as §1

[11] = system: HDQ-P1; assay: as above
Method in brief: as §1

[12] = system: CAL-120; assay: as above
Method in brief: as §1

[13] = system: MCF-10A; assay: as above
Method in brief: as §1

[14] = system: MFM-223; assay: as above
Method in brief: as §1

[15] = system: Hs578T; assay: as above
Method in brief: as §1

[16] = system: CAL-148; assay: normalised response (% of control), CellTox Green; higher = less cell death (100 = DMSO, 0 = benzethonium chloride kill control)
Method in brief: (§2)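 Each value is the plate-normalised signal at one concentration of the series. Breast cancer cell lines (20 µl suspension) were incubated 72 h in 384-well plates with compound at 5 concentrations in 10-fold steps over a compound-specific 10,000-fold range. CellTox Green and then CellTiter-Glo were read, and each plate was scaled to 0.1 % DMSO (100) and a positive kill control (0).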

[17] = system: MDA-MB-231; assay: as above
Method in brief: as §2

[18] = system: HCC1599; assay: as above
Method in brief: as §2

[19] = system: CAL-51; assay: as above
Method in brief: as §2

[20] = system: HCC1937; assay: as above
Method in brief: as §2

[21] = system: BT-474; assay: as above
Method in brief: as §2

[22] = system: HCC1143; assay: as above
Method in brief: as §2

[23] = system: MDA-MB-468; assay: as above
Method in brief: as §2

[24] = system: CAL-85-1; assay: as above
Method in brief: as §2

[25] = system: MDA-MB-436; assay: as above
Method in brief: as §2

[26] = system: HDQ-P1; assay: as above
Method in brief: as §2

[27] = system: CAL-120; assay: as above
Method in brief: as §2

Row | Compound | drug sensitivity score [1] | drug sensitivity score [2] | drug sensitivity score [3] | drug sensitivity score [4] | drug sensitivity score [5] | drug sensitivity score [6] | drug sensitivity score [7] | drug sensitivity score [8] | drug sensitivity score [9] | drug sensitivity score [10] | drug sensitivity score [11] | drug sensitivity score [12] | drug sensitivity score [13] | drug sensitivity score [14] | drug sensitivity score [15] | normalised response [16] [%] | normalised response [17] [%] | normalised response [18] [%] | normalised response [19] [%] | normalised response [20] [%] | normalised response [21] [%] | normalised response [22] [%] | normalised response [23] [%] | normalised response [24] [%] | normalised response [25] [%] | normalised response [26] [%] | normalised response [27] [%]
1 | CC(C)(C)Cn1c(N)nc2ccc(-c3[nH]c(C(C)(C)C)nc3-c3ccc(F)cc3)nc21 | 1.72 | 0 | 1.72 | 0 | 0 | 0 | 0.606 | 0 | 0 | 0 | 0 | 0.0489 | 3.14 | 1.18 | 0 |  |  |  |  |  |  |  |  |  |  |  | 
2 | Cn1cc(C[C@@H](N)C(=O)O)c2ccccc21 [1-methyl-D-tryptophan] | 0 | 0 | 0 | 0 | 0 | 0 | 0 | 0 | 0 | 0 | 0 | 0 | 0 | 0 | 0 |  |  |  |  |  |  |  |  |  |  |  | 
3 | CC[C@H](CC#N)OC(=O)N[C@@H](C)c1cccc(NC(=O)Nc2ccc(-c3cnco3)c(OC)c2)c1 [AVN944] | 15.9 | 12.5 | 0 | 16.5 | 9.9 | 13.4 | 8.56 | 11.7 | 13.1 | 12.9 | 11.7 | 8.08 | 8.88 | 6.05 | 10.1 |  |  |  |  |  |  |  |  |  |  |  | 
4 | Cc1c(N)nc([C@H](CC(N)=O)NC[C@H](N)C(N)=O)nc1C(=O)N[C@H](C(=O)N[C@H](C)[C@@H](O)[C@H](C)C(=O)N[C@H](C(=O)NCCc1nc(-c2nc(C(=O)NCCC[S+](C)C)cs2)cs1)[C@@H](C)O)[C@@H](OC1OC(CO)C(O)C(O)C1OC1OC(CO)C(O)C(OC(N)=O)C1O)c1cnc[nH]1 (stereo partly drawn) [Bleomycin] | 8.65 | 4.27 | 0 | 16.1 | 2.76 | 0 | 0 | 4.08 | 0 | 4.49 | 0 | 0.67 | 0 | 0 | 0 |  |  |  |  |  |  |  |  |  |  |  | 
5 | Cc1cc2c(F)c(Oc3ncnn4cc(OC[C@@H](C)O)c(C)c34)ccc2[nH]1 [Brivanib] | 0 | 0 | 0 | 1.49 | 0 | 0 | 0 | 0 | 0 | 0 | 0 | 0 | 0 | 0 | 0 |  |  |  |  |  |  |  |  |  |  |  | 
6 | COc1cc2c(Oc3ccc(NC(=O)C4(C(=O)Nc5ccc(F)cc5)CC4)cc3F)ccnc2cc1OCCCN1CCOCC1 [Foretinib] (100 nM) |  |  |  |  |  |  |  |  |  |  |  |  |  |  |  | 102 | 65.1 | 99.2 | 94.2 | 111 | 100 | 106 | 97.5 | 100 | 102 | 109 | 101
7 | COc1cc2c(Oc3ccc(NC(=O)C4(C(=O)Nc5ccc(F)cc5)CC4)cc3F)ccnc2cc1OCCCN1CCOCC1 [Foretinib] (1000 nM) |  |  |  |  |  |  |  |  |  |  |  |  |  |  |  | 33.1 | -15.4 | 92 | 37.9 | 99.8 | 97.1 | 46 | 37.6 | 76.8 | 81.9 | 58.9 | 99.9
8 | O=NN(CCCl)C(=O)NC1CCCCC1 [Lomustine] (1000 nM) |  |  |  |  |  |  |  |  |  |  |  |  |  |  |  | 106 | 90 | 93.7 | 112 | 120 | 98.1 | 108 | 128 | 98.6 | 84.8 | 55.3 | 103
9 | O=C(O)CC[C@H]1CC[C@@](c2cc(F)ccc2F)(S(=O)(=O)c2ccc(Cl)cc2)CC1 [MK-0752] (100 nM) |  |  |  |  |  |  |  |  |  |  |  |  |  |  |  | 59 | 122 | 111 | 116 | 96 | 102 | 105 | 165 | 97 | 110 | 109 | 101
10 | NC1(c2ccc(-c3nc4ccn5c(=O)[nH]nc5c4cc3-c3ccccc3)cc2)CCC1 [MK-2206] (100 nM) |  |  |  |  |  |  |  |  |  |  |  |  |  |  |  | 109 | 110 | 108 | 117 | 63.5 | 103 | 97.8 | 116 | 102 | 107 | 108 | 101
11 | O=C(c1cc(Cc2n[nH]c(=O)c3ccccc23)ccc1F)N1CCN(C(=O)C2CC2)CC1 [Olaparib] (1000 nM) |  |  |  |  |  |  |  |  |  |  |  |  |  |  |  | 92.9 | 100 | 94.9 | 89.5 | 109 | 92.9 | 93.3 | 122 | 102 | 60.6 | 71.5 | 97
12 | CO[C@H](C(=O)[C@@H](O)[C@@H](C)O)[C@@H]1Cc2cc3cc(O[C@H]4C[C@@H](O[C@@H]5C[C@@H](O)[C@H](O)[C@@H](C)O5)[C@H](O)[C@@H](C)O4)c(C)c(O)c3c(O)c2C(=O)[C@H]1O[C@H]1C[C@@H](O[C@@H]2C[C@@H](O)[C@@H](O[C@@H]3C[C@](C)(O)[C@H](O)[C@@H](C)O3)[C@@H](C)O2)[C@H](O)[C@@H](C)O1 [Plicamycin] (10000 nM) |  |  |  |  |  |  |  |  |  |  |  |  |  |  |  | 68.9 | 55.1 | 87.9 | -45.3 | 114 | 96 | 82.2 | 54 | 39.3 | 109 | 82.1 | 71.9
13 | C[C@]12C=CC(=O)C=C1CC[C@@H]1[C@@H]2C(=O)C[C@@]2(C)[C@H]1CC[C@]2(O)C(=O)CO [Prednisone] (1000 nM) |  |  |  |  |  |  |  |  |  |  |  |  |  |  |  | 73 | 116 | 97.7 | 112 | 113 | 103 | 105 | 83.2 | 103 | 101 | 94.4 | 102
14 | C[C@]12C=CC(=O)C=C1CC[C@@H]1[C@@H]2C(=O)C[C@@]2(C)[C@H]1CC[C@]2(O)C(=O)CO [Prednisone] (10000 nM) |  |  |  |  |  |  |  |  |  |  |  |  |  |  |  | 100 | 114 | 102 | 109 | 98.8 | 101 | 118 | 99.5 | 91.9 | 107 | 114 | -48.9
15 | CO[C@H]1C[C@@H]2CC[C@@H](C)[C@@](O)(O2)C(=O)C(=O)N2CCCC[C@H]2C(=O)O[C@H]([C@H](C)C[C@@H]2CC[C@@H](O)[C@H](OC)C2)CC(=O)[C@H](C)/C=C(\C)[C@@H](O)[C@@H](OC)C(=O)[C@H](C)C[C@H](C)/C=C/C=C/C=C/1C [Sirolimus] (100 nM) |  |  |  |  |  |  |  |  |  |  |  |  |  |  |  | 94.4 | 116 | 106 | 99.1 | 49.5 | 103 | 101 | 141 | 110 | 94.5 | 108 | 106
16 | CN1CCN(c2nc(C3=C(c4c[nH]c5ccccc45)C(=O)NC3=O)c3ccccc3n2)CC1 [Sotrastaurin] (1000 nM) |  |  |  |  |  |  |  |  |  |  |  |  |  |  |  | 58.2 | 108 | 92.9 | 105 | 108 | 98.8 | 58.9 | 215 | 106 | 102 | 66.9 | 102
17 | Cn1nnc2c(C(N)=O)ncn2c1=O [Temozolomide] (1000 nM) |  |  |  |  |  |  |  |  |  |  |  |  |  |  |  | 95.8 | 109 | 94.6 | 87.6 | 96.6 | 96.5 | 50.4 | 106 | 108 | 80.5 | 100 | 103
18 | Cn1nnc2c(C(N)=O)ncn2c1=O [Temozolomide] (10000 nM) |  |  |  |  |  |  |  |  |  |  |  |  |  |  |  | 102 | 108 | 99.2 | 104 | 105 | 101 | 93.6 | 103 | 105 | 94.4 | 109 | 98.5
19 | CC[C@@H]1C(=O)N(C)c2cnc(Nc3ccc(C(=O)N[C@H]4CC[C@H](N5CCN(CC6CC6)CC5)CC4)cc3OC)nc2N1C(C)C [Volasertib] (1000 nM) |  |  |  |  |  |  |  |  |  |  |  |  |  |  |  | 85.8 | 95 | 74.2 | 22.4 | 59.1 | 94.7 | -18.9 | 118 | 88.7 | 92.7 | 31.2 | 63.5
